# From PubChem BioAssay (NCI)
#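 Interpolation was linear, between the two tested concentrations surrounding the appropriate level; five concentrations were tested over 48 hours in 96-well plates. The concentration for full growth arrest is given as TGI.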
# Experiments:
# Assay in all cases: DTP human tumour cell line panel, 48 h
# SK-MEL-28 melanoma = test system: SK-MEL-28 melanoma
# DMS 114 small cell lung = test system: DMS 114 small cell lung
# SNB-19 CNS = test system: SNB-19 CNS
# LXFL 529 NSCLC = test system: LXFL 529 NSCLC
# HOP-18 NSCLC = test system: HOP-18 NSCLC
# M19-MEL melanoma = test system: M19-MEL melanoma
# DLD-1 colon = test system: DLD-1 colon
# SNB-78 CNS = test system: SNB-78 CNS
# KM20L2 colon = test system: KM20L2 colon
# HCT-116 colon = test system: HCT-116 colon
# OVCAR-4 ovarian = test system: OVCAR-4 ovarian
# XF 498 CNS = test system: XF 498 CNS
# RXF-631 renal = test system: RXF-631 renal
# DMS 273 small cell lung = test system: DMS 273 small cell lung
SMILES,TGI (SK-MEL-28 melanoma) [µM],TGI (DMS 114 small cell lung) [µM],TGI (SNB-19 CNS) [µM],TGI (LXFL 529 NSCLC) [µM],TGI (HOP-18 NSCLC) [µM],TGI (M19-MEL melanoma) [µM],TGI (DLD-1 colon) [µM],TGI (SNB-78 CNS) [µM],TGI (KM20L2 colon) [µM],TGI (HCT-116 colon) [µM],TGI (OVCAR-4 ovarian) [µM],TGI (XF 498 CNS) [µM],TGI (RXF-631 renal) [µM],TGI (DMS 273 small cell lung) [µM]
COc1cccc2nc3cc(C)c(C)cc3nc12,> 100,> 100,> 100,> 100,> 100,> 100,> 100,> 100,> 100,> 100,> 100,> 100,> 100,> 100
c1ccc(C2OCCO2)c(OCCOc2cc(OCCOc3ccccc3C3OCCO3)c(OCCOc3ccccc3C3OCCO3)cc2OCCOc2ccccc2C2OCCO2)c1,> 100,29.9,–,> 100,> 100,> 100,> 100,28,> 100,44.2,30.2,–,–,50.9
CC(C)C1COC(c2cccc(C3=N[C@@H](C(C)C)CO3)n2)=N1 (some centres not stated),> 100,> 100,> 100,> 100,–,> 100,> 100,> 100,> 100,> 100,> 100,> 100,> 100,> 100
C=CCNC(=O)NCCCC(NC(C)=O)C(=O)NCc1ccccc1 (configuration not stated),> 100,–,> 100,> 100,> 100,> 100,–,–,> 100,–,> 100,> 100,> 100,> 100
COc1ccc(-c2cc(=O)c3cc4c(cc3[nH]2)OCO4)cc1,> 100,> 100,> 100,> 100,–,> 100,> 100,–,> 100,> 100,> 100,> 100,–,> 100
CCC(=O)N(O)C(C)(C)C,> 100,> 100,> 100,> 100,–,> 100,> 100,> 100,> 100,> 100,> 100,–,–,–
CC(C)(C)OC(=O)N/N=C(/N)Cc1ccccc1,> 100,–,> 100,–,–,–,–,–,–,> 100,> 100,–,–,–
CC(C)CCc1n[nH]c(=O)n1/N=C\c1ccccc1,> 100,–,> 100,–,–,–,–,–,–,> 100,> 100,–,–,–
O=C1NC(=O)C(COCc2ccccc2)C2=C1SCCC2 (configuration not stated),> 100,–,> 100,–,–,–,–,–,–,> 100,> 100,–,–,–
c1ccc2cc(CNCCOCCOCCNCc3ccc4ccccc4c3)ccc2c1,4.35,–,5.31,–,–,–,–,–,–,3.08,5.78,–,–,–
Cc1cc2nc(-c3c(F)cccc3F)n(Cc3c(F)cccc3F)c2cc1C,42.2,–,42.7,–,–,–,–,–,–,24.4,40.1,–,–,–
CC1(C)OC(=O)C2(O1)C(=O)C1CCCCC12 (configuration not stated),> 100,–,> 100,–,–,–,–,–,–,> 100,> 100,–,–,–
CC(C)C12C=CC(C)(CC1)n1c(=O)c3cc4ccccc4cc3c(=O)n12 (configuration not stated),> 100,> 100,> 100,> 100,–,> 100,> 100,> 100,> 100,> 100,> 100,> 100,> 100,> 100
Cc1n[nH]c(=O)n1/N=C\CC/C=N\n1c(C)n[nH]c1=O,> 100,–,> 100,–,–,–,–,–,–,> 100,> 100,–,–,–
COC(=O)[C@@]12C(=O)C(C)C(=O)[C@]1(C)C(C)=C[C@H]1[C@]3(C=O)CC[C@H](OC(C)=O)C(C)(C)[C@H]3CC[C@@]12C (some centres not stated),> 100,–,> 100,–,–,–,–,–,–,> 100,> 100,–,–,–
O=C(/C=C/c1ccccc1)CSc1nc2ccc(I)cc2c(=O)n1Cc1ccccc1,> 100,–,> 100,–,–,–,–,–,–,> 100,> 100,–,–,–
C=C=C(Sc1ccccc1)C(C)(C)OC(C)=O,31.4,–,40.4,38.3,38.5,30.6,31.5,91.4,58.7,27.7,> 100,–,–,–
CS/C(C)=N/OC(=O)NCCCCNc1ccc(N=[N+]=[N-])cc1,> 100,43.2,> 100,> 100,> 100,> 100,> 100,> 100,> 100,> 100,> 100,52,31.4,–
COc1ccc(C(=O)N(C(=S)OCCOc2ccccc2)c2ccccc2)cc1,> 100,–,> 100,–,–,–,–,–,–,> 100,> 100,–,–,–
CN(CCCN(C)CCc1ccc(Cl)c(Cl)c1)CCCN1CCCC1,3.18,–,13.7,–,–,–,–,–,–,4.11,20.5,–,–,–
O=c1oc2c(ccc3ccccc32)cc1C1=CSC2=NCCN12,> 100,–,> 100,–,–,–,–,–,–,> 100,> 100,–,–,–
CC(C)/C(Cl)=N\OC(=O)Nc1ccc(F)cc1F,25.4,–,34.8,–,–,–,–,–,–,15.7,10.3,–,–,–
Nc1ncnc2c1cnn2Cc1cn(COCC(O)CO)nn1 (configuration not stated),> 100,–,> 100,–,–,–,–,–,–,> 100,> 100,–,–,–
COC(=O)CC(=O)Nc1sccc1S(=O)(=O)c1ccccc1,> 100,–,> 100,–,–,–,–,–,–,> 100,> 100,–,–,–
COC(=O)C1CCC(=O)N1C(c1ccccc1)c1cc(OC)c(OC)c(OC)c1 (configuration not stated),> 100,–,> 100,–,–,–,–,–,–,> 100,> 100,–,–,–
Oc1ccc(/C=C/c2ccc3cccc(O)c3n2)cc1O,89.5,–,20.9,–,–,–,–,–,–,14.5,> 100,–,–,–
CC(C)C/C=C/C1=NN(c2cccc(S(=O)(=O)O)c2)C2(C1)SCC(=O)N2c1nc2ccccc2s1 (configuration not stated),> 100,–,> 100,–,–,–,–,–,–,> 100,> 100,–,–,–
